One experiment relates to Entero. cloacae HH 31254. The experiment can be described thus: MIC in vitro, Entero. cloacae HH 31254 (G-). To be noted: Enterobacter cloacae, HH31254. Format: cell-based. The text has this:
(§1) Table 1 contains minimum inhibitory concentrations in μg./ml. of a number of representative compounds compared with standard agents.

For the next experiment, the system named is Pseudo Aeruginosa HH 63. The experiment can be described thus: MIC in vitro, Pseudo Aeruginosa HH 63 (G-). It counts as cell-based.
Description: as §1

The next experiment has as its system Proteus morgani 179. The experiment can be described thus: MIC in vitro, Proteus morgani 179 (G-). It counts as cell-based.
Description: as §1

For another experiment, the system named is E. coli HH 33779. The experiment can be described thus: MIC in vitro, E. coli HH 33779 (G-). It counts as cell-based. To be noted: Escherichia coli, HH33779.
Description: as §1

The next experiment deals with S. villaluz SK 70390. The experiment can be described thus: MIC in vitro, S. villaluz SK 70390 (G+). It counts as cell-based. To be noted: read-out: MIC in vitro.
Description: as §1

Experiment [1] concerns Entero. aerogenes ATCC 13048. The experiment can be described thus: MIC in vitro, Entero. aerogenes ATCC 13048 (G-). Format: cell-based. To be noted: Klebsiella aerogenes.
Description: as §1

The next experiment has as its system E. coli SK 12140. The experiment can be described thus: MIC in vitro, E. coli SK 12140 (G-). To be noted: Escherichia coli, SK12140. Format: cell-based.
Description: as §1

Another experiment concerns E. coli 12140. The experiment can be described thus: standard in vivo mouse protection test, E. coli 12140. To be noted: s.c. The procedure: (§2) C is 7β-(syn-2-hydroxyimino-2-phenylacetamido)-3-(1-sulfomethyltetrazol-5-ylthiomethyl)-3-cephem-4-carboxylic acid disodium salt. […] 4200; 25 mg./kg. against E. coli 12140; Compound B 45 mg./kg. against Kleb. and 43, >50 against E. coli.

A further experiment has as its system S. Aureus HH 127. The experiment can be described thus: MIC in vitro, S. Aureus HH 127 (G+). Format: cell-based. To be noted: Staphylococcus aureus.
Description: as §1

A further experiment relates to Kleb. pneumoniae SK 1200. The experiment can be described thus: MIC in vitro, Kleb. pneumoniae SK 1200 (G-). It counts as cell-based. To be noted: Klebsiella pneumoniae, SK1200.
Description: as §1

In another experiment the test system is S. Aureus SK 23390. The experiment can be described thus: MIC in vitro, S. Aureus SK 23390 (G+). Format: cell-based. To be noted: Staphylococcus aureus.
Description: as §1

Another experiment deals with Kleb. pneumo. 4200. The experiment can be described thus: standard in vivo mouse protection test, Kleb. pneumo. 4200. To be noted: sc. As for the experimental part:
as §2

Another experiment has as its system Strep. Faecalis HH 34358. The experiment can be described thus: MIC in vitro, Strep. Faecalis HH 34358 (G+). It counts as cell-based. To be noted: for MIC: Enterococcus faecalis.
Description: as §1

The subject of a further experiment is Kleb. pneumoniae SK 4200. The experiment can be described thus: MIC in vitro, Kleb. pneumoniae SK 4200 (G-). It counts as cell-based. To be noted: Klebsiella pneumoniae, SK4200.
Description: as §1

For the next experiment, the system named is Salmonella ATCC 12176. The experiment can be described thus: MIC in vitro, Salmonella ATCC 12176 (G-). Format: cell-based. To be noted: for MIC: Salmonella, ATCC12176, Salmonella ATCC 12176, G-.
Description: as §1

Experiment [2] concerns Serratia Marcescens ATCC 13880. The experiment can be described thus: MIC in vitro, Serratia Marcescens ATCC 13880 (G-). It counts as cell-based.
Description: as §1

The next experiment relates to P. Mirabils PM 444. The experiment can be described thus: MIC in vitro, P. Mirabils PM 444 (G-). It counts as cell-based.
Description: as §1

Setting [3] is: ATCC13048, Entero. aerogenes ATCC 13048, G-, read-out: MIC in vitro.
The mark [4] stands for this setting: Escherichia coli, 12140, sc, read-out: ED50.
The mark [5] stands for this setting: ATCC13880, Serratia Marcescens ATCC 13880, G-, read-out: MIC in vitro.
[6] abbreviates: P. Mirabils PM 444, G-, read-out: MIC in vitro.

Values after ≈ are worked out from the molar mass of the structure shown. Structures can show the parent of a compound that is named as a salt. Where two headings read alike, the source gives them in different places. Where only a bound is given, the exact number is not on record here.

By MIC is commonly meant the smallest concentration in the dilution series that meets the test's criterion for growth inhibition. By ED50 is commonly meant the dose at which the effect has come halfway, by size or by number of responders.

Take `O=C(O)C1=C(CSc2nnnn2CS(=O)(=O)O)CS[C@@H]2[C@H](NC(=O)/C(=N\O)c3ccccc3)C(=O)N12` [Compound C, 7β-(syn-2-hydroxyimino-2-phenylacetamido)-3-(1-sulfomethyltetrazol-5-ylthiomethyl)-3-cephem-4-carboxylic acid disodium salt]: the MIC with Entero. cloacae HH 31254 was 1.6 µg/mL; in the experiment with Pseudo Aeruginosa HH 63, > 200 µg/mL; in the experiment on Proteus morgani 179, 25 µg/mL; against E. coli HH 33779 it was 3.1 µg/mL; in the experiment on S. villaluz SK 70390 (S. villaluz SK 70390, G+), 100 µg/mL; in [1] (setting [3]), 6.3 µg/mL. For the same molecule, the MIC against E. coli SK 12140 is 1.6 µg/mL; in the experiment with S. Aureus HH 127, 0.8 µg/mL; in the experiment with Kleb. pneumoniae SK 1200 it was 0.8 µg/mL; with S. Aureus SK 23390, 0.8 µg/mL; in the experiment with Strep. Faecalis HH 34358 it was 6.3 µg/mL; against Kleb. pneumoniae SK 4200, 1.6 µg/mL. For the same molecule, the MIC with Salmonella ATCC 12176 was 0.8 µg/mL; in experiment [2] (setting [5]) it was 12.5 µg/mL. Further, the ED50 was 25 mg/kg in the experiment on E. coli 12140 (setting [4]) and 4.4 mg/kg in the experiment with Kleb. pneumo. 4200.

Regarding `Cc1nnc(SCC2=C(C(=O)O)N3C(=O)[C@@H](NC(=O)Cn4cnnn4)[C@H]3SC2)s1` [Cefazolin, reference compound], the MIC with P. Mirabils PM 444 (setting [6]) was 3.1 µg/mL (≈ 6.82 µM); against Entero. cloacae HH 31254 it was 0.8 µg/mL (≈ 1.76 µM); in the experiment with Pseudo Aeruginosa HH 63 it was > 200 µg/mL; with Proteus morgani 179 it was 200 µg/mL (≈ 440 µM); against E. coli HH 33779, 1.6 µg/mL (≈ 3.52 µM); in [1] (setting [3]), 1.6 µg/mL (≈ 3.52 µM). For the same molecule, the MIC worked out at 0.8 µg/mL (≈ 1.76 µM) against E. coli SK 12140; 0.4 µg/mL (≈ 0.88 µM) with S. Aureus HH 127; 0.4 µg/mL (≈ 0.88 µM) with Kleb. pneumoniae SK 1200; 0.2 µg/mL (≈ 0.44 µM) in the experiment with S. Aureus SK 23390; 6.3 µg/mL (≈ 13.9 µM) against Strep. Faecalis HH 34358; 1.6 µg/mL (≈ 3.52 µM) against Kleb. pneumoniae SK 4200. Further, the MIC in the experiment with Salmonella ATCC 12176 was 0.8 µg/mL (≈ 1.76 µM); in [2] (setting [5]), > 200 µg/mL.

With `CO/N=C(\C(=O)N[C@@H]1C(=O)N2C(C(=O)O)=C(CSc3nnnn3CS(=O)(=O)O)CS[C@H]12)c1ccccc1` [Compound B, 7β-(syn-2-methoxyimino-2-phenylacetamido)-3-(1-sulfomethyltetrazol-5-ylthiomethyl)-3-cephem-4-carboxylic acid disodium salt], the MIC in the experiment on Entero. cloacae HH 31254 was 3.1 µg/mL; in the experiment on Pseudo Aeruginosa HH 63 it was 200 µg/mL; with Proteus morgani 179, 6.3 µg/mL; against E. coli HH 33779, 6.3 µg/mL; with S. villaluz SK 70390, > 200 µg/mL; in experiment [1] (ATCC13048, read-out: MIC in vitro) it was 12.5 µg/mL. Moreover, the MIC came out at 6.3 µg/mL against E. coli SK 12140; 1.6 µg/mL in the experiment on S. Aureus HH 127; 3.1 µg/mL in the experiment on Kleb. pneumoniae SK 1200; 1.6 µg/mL with S. Aureus SK 23390; 25 µg/mL with Strep. Faecalis HH 34358; 3.1 µg/mL with Kleb. pneumoniae SK 4200. For the same molecule, the MIC with Salmonella ATCC 12176 stood at 1.6 µg/mL; in experiment [2] (setting [5]), 12.5 µg/mL. The ED50 with E. coli 12140 (setting [4]) was 43 mg/kg; in the experiment on E. coli 12140 (disodium salt), > 50 mg/kg; in the experiment with Kleb. pneumo. 4200, 45 mg/kg.

Consider `CO[C@@]1(NC(=O)Cc2cccs2)C(=O)N2C(C(=O)O)=C(COC(N)=O)CS[C@@H]21` [Cefoxitin, reference compound], for which the MIC in the experiment with P. Mirabils PM 444 (setting [6]) is 6.3 µg/mL (≈ 14.7 µM); in the experiment on Entero. cloacae HH 31254, 6.3 µg/mL (≈ 14.7 µM); with Pseudo Aeruginosa HH 63, > 200 µg/mL; with Proteus morgani 179, 12.5 µg/mL (≈ 29.2 µM); against E. coli HH 33779, 12.5 µg/mL (≈ 29.2 µM); in the experiment on S. villaluz SK 70390 (S. villaluz SK 70390, G+), 100 µg/mL (≈ 234 µM). Also, the MIC in experiment [1] (setting [3]) turned out to be 25 µg/mL (≈ 58.5 µM); with E. coli SK 12140 it was 6.3 µg/mL (≈ 14.7 µM); against S. Aureus HH 127, 1.6 µg/mL (≈ 3.74 µM); in the experiment on Kleb. pneumoniae SK 1200 it was 3.1 µg/mL (≈ 7.25 µM); in the experiment on S. Aureus SK 23390 it was 3.1 µg/mL (≈ 7.25 µM); against Strep. Faecalis HH 34358, 200 µg/mL (≈ 468 µM). Moreover, the MIC in the experiment on Kleb. pneumoniae SK 4200 came to 6.3 µg/mL (≈ 14.7 µM); against Salmonella ATCC 12176, 3.1 µg/mL (≈ 7.25 µM); in [2] (setting [5]) it was 12.5 µg/mL (≈ 29.2 µM).

As to `CO/N=C(\C(=O)N[C@@H]1C(=O)N2C(C(=O)O)=C(COC(N)=O)CS[C@H]12)c1ccco1` [Cefuroxime, reference compound], the MIC with P. Mirabils PM 444 (setting [6]) was 1.6 µg/mL (≈ 3.77 µM); against Entero. cloacae HH 31254, 3.1 µg/mL (≈ 7.3 µM); in the experiment on Pseudo Aeruginosa HH 63, > 200 µg/mL; against Proteus morgani 179, 50 µg/mL (≈ 118 µM); with E. coli HH 33779 it was 6.3 µg/mL (≈ 14.8 µM); in the experiment with S. villaluz SK 70390 (S. villaluz SK 70390, G+), > 200 µg/mL. Moreover, the MIC is 6.3 µg/mL (≈ 14.8 µM) in experiment [1] (setting [3]); 6.3 µg/mL (≈ 14.8 µM) against E. coli SK 12140; 0.8 µg/mL (≈ 1.89 µM) with S. Aureus HH 127; 3.1 µg/mL (≈ 7.3 µM) in the experiment with Kleb. pneumoniae SK 1200; 1.6 µg/mL (≈ 3.77 µM) against S. Aureus SK 23390; 12.5 µg/mL (≈ 29.5 µM) against Strep. Faecalis HH 34358. The values for the MIC (with Kleb. pneumoniae SK 4200; with Salmonella ATCC 12176; in [2] (setting [5])) were 6.3 µg/mL (≈ 14.8 µM), 3.1 µg/mL (≈ 7.3 µM) and 12.5 µg/mL (≈ 29.5 µM), respectively.

For `CO/N=C(\C(=O)N[C@@H]1C(=O)N2C(C(=O)O)=C(CSc3nnnn3CS(=O)(=O)O)CS[C@H]12)c1ccco1` [A, 7β-(syn-2-methoxyimino-2-α-furylacetamido)-3-(1-sulfomethyltetrazol-5-ylthiomethyl)-3-cephem-4-carboxylic acid disodium salt hydrate], the MIC in the experiment on P. Mirabils PM 444 (setting [6]) was 1.6 µg/mL; with P. Mirabils PM 444 (read-out: MIC in vitro, P. Mirabils PM 444, G-) it was 0.2 µg/mL; in the experiment on Entero. cloacae HH 31254, 0.8 µg/mL; with Pseudo Aeruginosa HH 63 it was 100 µg/mL; with Proteus morgani 179 it was 1.6 µg/mL; with E. coli HH 33779, 1.6 µg/mL. Moreover, the MIC in the experiment with S. villaluz SK 70390 (S. villaluz SK 70390, G+) was > 200 µg/mL; in [1] (setting [3]), 3.1 µg/mL; against E. coli SK 12140, 0.8 µg/mL; against S. Aureus HH 127, 3.1 µg/mL; against Kleb. pneumoniae SK 1200, 0.4 µg/mL; in the experiment on S. Aureus SK 23390, 3.1 µg/mL. Further, the MIC in the experiment with Strep. Faecalis HH 34358 is 100 µg/mL; against Kleb. pneumoniae SK 4200 it was 0.8 µg/mL; against Salmonella ATCC 12176 it was 0.4 µg/mL; in experiment [2] (setting [5]), 3.1 µg/mL; in experiment [2] (Serratia marcescens, ATCC13880, read-out: MIC in vitro, Serratia Marcescens ATCC 13880, G-), 6.3 µg/mL. For the same molecule, the MIC in vitro in the experiment on Strep. Faecalis HH 34358 (disodium salt hydrate) stood at 200 µg/mL; in the experiment on Salmonella ATCC 12176 (Salmonella ATCC 12176, G-, disodium salt hydrate), 0.8 µg/mL.

For the origin of these results see patent US4066762A, “Derivatives of 7-(2-substituted-2-hydroxyiminoacetamido)-3-(1-substituted tetrazol-5-yl thiomethyl-3-cephem-4-carboxylic acid” (SmithKline Corporation, priority 1976, dated 1978).
